For 41 molecules, IC50 results are on record in patent US20050130989A1, “N-arylheteroaromatic products compositions containing them and use thereof” (Aventis Pharma S. A., priority 2003, published 2005).

The test system of assay [1] is HCT116 cells. The assay is described as follows: Inhibition of proliferation of the human colon tumor line HCT116 ([14C]-thymidine incorporation). The format is cell-based. Conditions: Homo sapiens, HCT-116, 48 h, 48 hours at 37° C., read-out: Inhibition of HCT116 proliferation IC 50 (μm). The method, then:
The proliferation of HCT116 cells is evaluated by measuring the incorporation of [^14C]-thymidine in the following manner. The HCT 116 cells (obtained from the ATCC) are cultured in a DMEM medium (Gibco) containing 10% fetal calf serum and antibiotics (1% penicillin, 1% streptomycin). To perform the proliferation test, the cells are inoculated in cytostar 96-well microplates (Amersham), at a rate of 5000 cells per well. [^14C]-thymidine (0.1 μCi/well) and the products to be evaluated are then added. Variable concentrations of products up to 10 μm are used; the DMSO (solvent used to dissolve the products) should not exceed 0.5% in the medium. 48 hours after incubation at 37° C., the radioactivity incorporated into the cells is measured by counting the plate in a TRI-LUX counter (Wallac). The IC50 is defined as the concentration of product that reduces the radioactivity by 50% compared with an untreated control. A product whose IC50 is less than 3 μm is considered cytotoxic.

Assay [2] has as its target T1, tubulin (Sus scrofa, UniProt P02550+P02554).
T1 construct: Tubulin is purified from pig brain according to published methods; from tissue; host or cells: pig brain
The assay is described as follows: Evaluation of the inhibition of tubulin polymerization (turbidimetry). It counts as biochemical, pig. Conditions: tubulin 10 μm (1 mg/ml), 37° C., turbidity at 350 nm; concentration that inhibits the rate of polymerization by 50%; read-out: Inhibition of tubulin polymerization IC 50 (μm). The method, boiled down: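 Pig brain tubulin (>95% pure), 10 μm in MES pH 6.8/30% glycerol buffer plus 1 mM GTP and 6 mM MgCl2, with compound at 0.5–10 μm added before polymerization. Polymerization triggered by shift from 6° C to 37° C, followed by turbidity at 350 nm; IC50 is 50% inhibition of polymerization rate.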

pIC50: −log10 of the molar value.

T1 sequence (P02550 whole entry): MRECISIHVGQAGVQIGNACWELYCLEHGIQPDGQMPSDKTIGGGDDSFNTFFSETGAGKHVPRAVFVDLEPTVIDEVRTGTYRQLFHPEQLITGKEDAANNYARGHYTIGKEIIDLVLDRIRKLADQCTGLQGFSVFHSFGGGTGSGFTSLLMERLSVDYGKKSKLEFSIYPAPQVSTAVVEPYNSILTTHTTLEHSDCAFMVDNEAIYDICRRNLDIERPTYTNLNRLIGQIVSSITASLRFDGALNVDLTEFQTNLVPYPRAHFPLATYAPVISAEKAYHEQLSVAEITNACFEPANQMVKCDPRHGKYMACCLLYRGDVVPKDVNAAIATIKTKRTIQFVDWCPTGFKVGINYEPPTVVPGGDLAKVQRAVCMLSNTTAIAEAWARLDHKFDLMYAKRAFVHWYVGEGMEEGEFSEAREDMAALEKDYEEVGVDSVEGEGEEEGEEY
T1 sequence (P02554 whole entry): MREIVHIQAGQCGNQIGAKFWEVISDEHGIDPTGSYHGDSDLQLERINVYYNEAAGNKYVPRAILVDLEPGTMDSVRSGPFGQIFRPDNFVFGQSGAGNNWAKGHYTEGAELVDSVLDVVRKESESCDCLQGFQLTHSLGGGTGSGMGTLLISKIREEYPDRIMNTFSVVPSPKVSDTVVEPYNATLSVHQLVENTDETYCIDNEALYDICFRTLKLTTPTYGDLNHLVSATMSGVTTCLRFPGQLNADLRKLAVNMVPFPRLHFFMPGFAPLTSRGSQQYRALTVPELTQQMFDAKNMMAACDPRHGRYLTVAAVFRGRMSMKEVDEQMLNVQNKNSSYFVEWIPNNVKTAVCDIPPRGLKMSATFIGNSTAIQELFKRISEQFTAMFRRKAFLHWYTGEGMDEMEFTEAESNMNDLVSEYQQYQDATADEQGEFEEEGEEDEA

As for `Cc1cc(C(=O)N2CCN(c3ccc(Br)c(Cl)c3)CC2)n(-c2ccccc2)n1` [Example E59, [4-(4-Bromo-3-chlorophenyl)piperazin-1-yl](5-methyl-2-phenyl-2H-pyrazol-3-yl)methanone], the pIC50 in assay [1] is 6.98; in assay [2] it was 5.68.

`CCc1ccccc1N1CCN(C(=O)c2cc(C)nn2-c2cccc(C)c2)CC1` [3/29]: the pIC50 was 6.34 in assay [1] and 5.30 in assay [2].

For the molecule `Cc1cc(C(=O)N2CCN(c3ccccc3C)CC2)n(-c2ccccc2)n1` [3/42], the figures for the pIC50 in assay [1] and in assay [2] were 7.07 and 5.30, respectively.

As for `Cc1cc(C(=O)N2CCN(c3cccc(Cl)c3)CC2)n(-c2cnccn2)n1` [Example E36, [4-(3-Chlorophenyl)piperazin-1-yl](5-methyl-2-pyrazin-2-yl-2H-pyrazol-3-yl)-methanone], the pIC50 is 6.03 in assay [1] and 4.70 in assay [2].

Consider `COc1cccc(-n2nc(C)cc2C(=O)N2CCN(c3cccc(Cl)c3Cl)CC2)c1` [3/139], for which the pIC50 is 5.87 in assay [1] and above 4.60 in assay [2].

On to `COc1cc(OC)cc(N2CCN(C(=O)c3cc(N)nn3-c3ccccc3)CC2)c1` [Example E99, (5-Amino-2-phenyl-2H-pyrazol-3-yl)[4-(3,5-dimethoxyphenyl)piperazin-1-yl]methanone], for which the pIC50 in assay [1] was 8.62; in assay [2], 6.00.

On to `CCc1ccccc1N1CCN(C(=O)c2cc(C)nn2-c2ccccc2F)CC1` [3/142], for which the pIC50 in assay [1] was 6.96; in assay [2], 5.42.

With `Cc1cc(C(=O)N2CCN(c3ccccc3C)CC2)n(-c2ccccc2F)n1` [3/87], the figures for the pIC50 in assay [1] and in assay [2] were 6.62 and 4.82, respectively.

Turning to `Cc1cccc(N2CCN(C(=O)c3cc(C)nn3-c3ccccc3F)CC2)c1` [3/16], the results for the pIC50 in assay [1] and in assay [2] were 6.65 and 5.22, respectively.

Regarding `Cc1cc(C(=O)N2CCN(c3cccc(Cl)c3Cl)CC2)n(-c2ccc(F)cc2)n1` [3/119], the figures for the pIC50 in assay [1] and in assay [2] were 6.25 and 5.51, respectively.

For `COc1cc(OC)cc(N2CCN(C(=O)c3cc(/C=C/c4ccc(F)cc4)nn3-c3ccccc3)CC2)c1` [Example E87, [4-(3,5-Dimethoxyphenyl)piperazin-1-yl]-{5-[E-2-(4-fluorophenyl)vinyl]-2-phenyl-2H-pyrazol-3-yl}methanone], the results for the pIC50 in assay [1] and in assay [2] were 5.89 and 5.90, respectively.

For `Cc1cc(C(=O)N2CCN(c3ccccc3)CC2)n(-c2ccc(F)cc2)n1` [3/101], the pIC50 in assay [1] was 6.24; in assay [2] it was 5.30.

`COc1cc(OC)cc(N2CCN(C(=O)c3cc(-c4ccc(F)cc4)nn3-c3ccccc3)CC2)c1` [Example E88, [4-(3,5-Dimethoxyphenyl)piperazin-1-yl][5-(4-fluorophenyl)-2-phenyl-2H-pyrazol-3-yl]methanone]: the values for the pIC50 in assay [1] and in assay [2] were 5.90 and 5.34, respectively.

`Cc1cccc(N2CCN(C(=O)c3cc(C)nn3-c3cccc(Cl)c3)CC2)c1` [3/123]: the figures for the pIC50 in assay [1] and in assay [2] were 7.29 and 5.48, respectively.

Regarding `COc1cccc(N2CCN(C(=O)c3cc(C)nn3-c3ccc(C)cc3)CC2)c1` [3/80], the pIC50 is 7.11 in assay [1] and 5.30 in assay [2].

With `COc1cc(OC)cc(N2CCN(C(=O)c3cc(/C=N\O)nn3-c3ccccc3)CC2)c1` [Example E95, 5-[4-(3,5-Dimethoxyphenyl)piperazine-1-carbonyl]-1-phenyl-1H-pyrazole-3-carboxaldehyde oxime Z], the pIC50 in assay [1] is 9.77; in assay [2], 6.10.

On to `Cc1cc(C(=O)N2CCN(c3ccc(C)c(C)c3)CC2)n(-c2cccc(F)c2)n1` [3/17], for which the pIC50 in assay [1] was 6.80; in assay [2], 5.46.

For the molecule `CSc1ccccc1N1CCN(C(=O)c2cc(C)nn2-c2ccc(F)cc2)CC1` [3/58], the pIC50 in assay [1] is 5.40; in assay [2], 5.35.

In the case of `Cc1cc(C(=O)N2CCN(c3cccc(S(C)(=O)=O)c3)CC2)n(-c2ccccc2)n1` [Example E26, [4-(3-Methanesulfonylphenyl)piperazin-1-yl](5-methyl-2-phenyl-2H-pyrazol-3-yl)methanone], the pIC50 in assay [1] was 6.87; in assay [2] it was 5.19.

For the molecule `O=C(c1cc(-c2ccccc2)nn1-c1ccccc1)N1CCN(c2cccc(Cl)c2)CC1` [Example E66, [4-(3-Chlorophenyl)piperazin-1-yl](2,5-diphenyl-2H-pyrazol-3-yl)methanone], the figures for the pIC50 in assay [1] and in assay [2] were 5.74 and 5.43, respectively.

Turning to `COc1cc(OC)cc(N2CCN(C(=O)c3cc(Br)nn3-c3ccccc3)CC2)c1` [Example E82, (5-Bromo-2-phenyl-2H-pyrazol-3-yl)[4-(3,5-dimethoxyphenyl)piperazin-1-y]-methanone], the pIC50 in assay [1] was 8.74; in assay [2], 6.03.

As to `COc1ccccc1N1CCN(C(=O)c2cc(C)nn2-c2cccc(C)c2)CC1` [3/45], the values for the pIC50 in assay [1] and in assay [2] were 7.14 and 5.52, respectively.

On to `Cc1cc(C(=O)N2CCN(c3ccccc3C(F)(F)F)CC2)n(-c2ccccc2F)n1` [3/145], for which the pIC50 in assay [1] was 5.82; in assay [2], 5.00.

`Cc1cc(C(=O)N2CCN(c3ccc(C)c(Cl)c3)CC2)n(-c2ccccc2)n1` [3/151]: the pIC50 is 7.66 in assay [1] and 5.77 in assay [2].

For the molecule `O=C(c1cc(-c2cccnc2)nn1-c1ccccc1)N1CCN(c2cccc(Cl)c2)CC1` [Example E67, [4-(3-Chlorophenyl)piperazin-1-yl][2-phenyl-5-(pyrid-3-yl)-2H-pyrazol-3-yl]methanone], the figures for the pIC50 in assay [1] and in assay [2] were 6.63 and 5.64, respectively.

Turning to `Cc1cc(C(=O)N2CCN(c3cccc(Cl)c3Cl)CC2)n(-c2cccc(F)c2)n1` [3/99], the pIC50 in assay [1] was 7.39; in assay [2] it was 5.70.

On to `COc1cccc(N2CCN(C(=O)c3cc(C)nn3-c3ccc(F)cc3)CC2)c1` [3/63], for which the values for the pIC50 in assay [1] and in assay [2] were 7.72 and 6.05, respectively.

Consider `Cc1ccc(-n2nc(C)cc2C(=O)N2CCN(c3ccc(Cl)c(Cl)c3)CC2)cc1` [3/76], for which the values for the pIC50 in assay [1] and in assay [2] were 5.97 and 5.52, respectively.

With `COc1cccc(-n2nc(C)cc2C(=O)N2CCN(c3cccc(C(F)(F)F)c3)CC2)c1` [3/133], the pIC50 was 6.67 in assay [1] and 5.21 in assay [2].

Consider `COc1cc(OC)cc(N2CCN(C(=O)c3cc(C(Br)Br)nn3-c3ccccc3)CC2)c1` [Example E78, [4-(3,5-Dimethoxyphenyl)piperazin-1-yl](3-dibromomethyl-1-phenyl-1H-pyrazol-5-yl)methanone], for which the pIC50 in assay [1] was 6.50; in assay [2], 4.85.

Turning to `CCOc1ccccc1N1CCN(C(=O)c2cc(C)nn2-c2ccccc2)CC1` [3/43], the pIC50 in assay [1] is 6.64; in assay [2], 5.05.

In the case of `Cc1cc(C(=O)N2CCN(c3cccc(C(=O)NCCO)c3)CC2)n(-c2ccccc2)n1` [Example E40, N-(2-Hydroxyethyl)-3-[4-(5-methyl-2-phenyl-2H-pyrazole-3-carbonyl)piperazin-1-yl]benzamide], the pIC50 is 6.93 in assay [1] and 5.80 in assay [2].

For the molecule `Cc1cc(C(=O)N2CCN(c3ccccc3C(F)(F)F)CC2)n(-c2cccc(Cl)c2)n1` [3/128], the results for the pIC50 in assay [1] and in assay [2] were 6.05 and 4.92, respectively.

On to `Cc1cc(C(=O)N2CCN(c3cccc(Cl)c3)CC2)n(-c2ccccc2C)n1` [Example E45, [4-(3-Chlorophenyl)piperazin-1-yl](5-methyl-2-o-tolyl-2H-pyrazol-3-yl)methanone], for which the pIC50 is 7.98 in assay [1] and 6.00 in assay [2].

Take `O=C(c1cc(CNc2ccccc2)nn1-c1ccccc1)N1CCN(c2cccc(Cl)c2)CC1` [Example E76, [4-(3-Chlorophenyl)piperazin-1-yl](2-phenyl-5-phenylaminomethyl-2H-pyrazol-3-yl)methanone]: the results for the pIC50 in assay [1] and in assay [2] were 6.86 and 5.72, respectively.

As for `COc1ccc(Cl)cc1N1CCN(C(=O)c2cc(C)nn2-c2cccc(F)c2)CC1` [3/22], the pIC50 in assay [1] was 7.34; in assay [2], 5.82.

Turning to `COc1cccc(-n2nc(C)cc2C(=O)N2CCN(c3cccc4ccccc34)CC2)c1` [3/138], the pIC50 in assay [1] is 4.70; in assay [2] it was above 4.60.

For `Cc1cccc(-n2nc(C)cc2C(=O)N2CCN(c3cccc(Cl)c3)CC2)c1` [3/31], the pIC50 in assay [1] is 6.85; in assay [2], 5.89.

Regarding `COc1cccc(-n2nc(C)cc2C(=O)N2CCN(c3ccc(Cl)c(Cl)c3)CC2)c1` [3/81], the pIC50 in assay [1] is 6.53; in assay [2] it was 5.46.

With `Cc1cc(C(=O)N2CCN(c3ccccc3)CC2)n(-c2cccc(Cl)c2)n1` [3/40], the figures for the pIC50 in assay [1] and in assay [2] were 6.11 and 5.52, respectively.

For `Cc1cc(C(=O)N2CCN(c3cccc(Cl)c3)CC2)n(-c2nccs2)n1` [Example E37, [4-(3-Chlorophenyl)piperazin-1-yl](5-methyl-2-thiazol-2-yl-2H-pyrazol-3-yl)-methanone], the pIC50 in assay [1] is 7.42; in assay [2], 5.70.
